Reference: article PMC8667816, “VTT-006, an anti-mitotic compound, binds to the Ndc80 complex and suppresses cancer cell growth in vitro” (Oncoscience, 2021)

Experiments:
[1] = biological target: T1, recombinant Ndc80 complex (Bonsai; Ndc80^bonsai) (Homo sapiens, UniProt O14777); assay: fluorescence anisotropy of the compound (ex […] nm, em […] nm); type: binding; settings: PBS, 23 °C; 5 μM VTT-006, 1–15 μM protein; one site model with ligand depletion
T1 construct: Ndc80 bonsai: globular domains with shortened rod; plasmid from A. Musacchio; E. coli BL21(DE3), GST cut off with PreScission; with Kinetochore protein Nuf2; Kinetochore protein Spc25; Kinetochore protein Spc24
T1 sequence (O14777 1-286 limits assumed): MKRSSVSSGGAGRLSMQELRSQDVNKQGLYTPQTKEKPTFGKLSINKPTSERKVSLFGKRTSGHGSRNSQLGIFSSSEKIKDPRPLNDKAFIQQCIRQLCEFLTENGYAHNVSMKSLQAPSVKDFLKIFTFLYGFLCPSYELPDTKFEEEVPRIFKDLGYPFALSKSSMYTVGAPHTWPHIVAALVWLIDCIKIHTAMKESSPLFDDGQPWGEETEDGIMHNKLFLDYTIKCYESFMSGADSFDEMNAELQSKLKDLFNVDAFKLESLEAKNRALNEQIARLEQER
T1 sequence (Q9BZD4 1-169 partner limits assumed): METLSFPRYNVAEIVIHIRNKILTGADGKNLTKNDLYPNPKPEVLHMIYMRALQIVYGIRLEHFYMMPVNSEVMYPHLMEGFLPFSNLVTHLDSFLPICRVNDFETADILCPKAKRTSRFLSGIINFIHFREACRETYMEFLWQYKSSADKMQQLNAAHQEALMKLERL
T1 sequence (Q9HBM1 118-224 partner limits assumed): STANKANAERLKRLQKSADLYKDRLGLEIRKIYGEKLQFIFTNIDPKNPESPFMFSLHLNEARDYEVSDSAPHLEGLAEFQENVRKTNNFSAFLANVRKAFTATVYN
T1 sequence (Q8NBT2 122-197 partner limits assumed): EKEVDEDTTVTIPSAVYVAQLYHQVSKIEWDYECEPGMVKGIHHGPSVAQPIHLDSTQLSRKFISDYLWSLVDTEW

[2] = biological target: T2, GFP-tagged Ndc80 complex (Ndc80-GFP) (Homo sapiens, UniProt O14777); assay: single-molecule TIRF, residence time of Ndc80-GFP on microtubules; type: biochemical; settings: 10 μM VTT-006; Taxol-stabilized microtubules, BRB80 pH 6.9; Ndc80 6–10 pM
T2 construct: with Kinetochore protein Nuf2; Kinetochore protein Spc25; Kinetochore protein Spc24
T2 sequence (O14777 whole entry): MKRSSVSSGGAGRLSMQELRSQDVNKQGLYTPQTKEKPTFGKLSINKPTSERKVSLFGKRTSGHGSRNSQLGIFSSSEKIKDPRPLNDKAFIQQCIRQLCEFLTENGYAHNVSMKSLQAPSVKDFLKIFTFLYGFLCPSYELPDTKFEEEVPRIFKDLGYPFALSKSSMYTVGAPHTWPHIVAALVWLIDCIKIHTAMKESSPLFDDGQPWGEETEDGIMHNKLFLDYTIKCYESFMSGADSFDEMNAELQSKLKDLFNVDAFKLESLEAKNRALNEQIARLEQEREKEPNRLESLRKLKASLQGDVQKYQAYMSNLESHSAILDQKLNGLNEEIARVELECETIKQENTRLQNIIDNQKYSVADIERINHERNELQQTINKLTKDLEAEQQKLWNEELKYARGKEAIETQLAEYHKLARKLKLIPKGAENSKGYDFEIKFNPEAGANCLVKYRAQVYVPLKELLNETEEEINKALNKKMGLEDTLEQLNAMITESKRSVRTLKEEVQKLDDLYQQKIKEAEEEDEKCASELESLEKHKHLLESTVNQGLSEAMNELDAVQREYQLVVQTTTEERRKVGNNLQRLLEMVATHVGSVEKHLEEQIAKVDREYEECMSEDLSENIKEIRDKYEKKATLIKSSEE
T2 sequence (Q9BZD4 whole entry partner): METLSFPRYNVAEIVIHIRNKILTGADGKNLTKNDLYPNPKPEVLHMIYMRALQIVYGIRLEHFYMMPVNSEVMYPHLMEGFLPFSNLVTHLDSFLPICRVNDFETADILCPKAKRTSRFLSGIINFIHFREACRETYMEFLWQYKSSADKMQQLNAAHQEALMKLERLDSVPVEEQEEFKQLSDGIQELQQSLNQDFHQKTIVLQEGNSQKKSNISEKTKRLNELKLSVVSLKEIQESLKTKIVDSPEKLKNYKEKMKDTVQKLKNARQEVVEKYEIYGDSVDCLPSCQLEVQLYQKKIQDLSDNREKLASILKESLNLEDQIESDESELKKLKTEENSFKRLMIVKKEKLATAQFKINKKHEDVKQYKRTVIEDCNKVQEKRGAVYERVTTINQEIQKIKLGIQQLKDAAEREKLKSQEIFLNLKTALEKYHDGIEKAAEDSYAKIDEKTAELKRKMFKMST
T2 sequence (Q8NBT2 whole entry partner): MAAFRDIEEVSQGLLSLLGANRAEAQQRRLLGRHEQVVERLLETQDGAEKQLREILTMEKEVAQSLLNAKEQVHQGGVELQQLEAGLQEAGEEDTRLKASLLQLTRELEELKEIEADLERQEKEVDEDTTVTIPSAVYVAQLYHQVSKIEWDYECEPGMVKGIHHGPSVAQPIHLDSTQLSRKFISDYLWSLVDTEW
T2 sequence (Q9HBM1 whole entry partner): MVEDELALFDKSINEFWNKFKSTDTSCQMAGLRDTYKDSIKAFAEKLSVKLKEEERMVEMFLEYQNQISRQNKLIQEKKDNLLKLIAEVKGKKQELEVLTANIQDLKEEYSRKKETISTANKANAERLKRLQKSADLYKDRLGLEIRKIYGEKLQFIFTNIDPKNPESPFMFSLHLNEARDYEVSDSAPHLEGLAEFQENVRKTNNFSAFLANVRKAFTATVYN

- Kd [1]: 2.07 ± 2.84 µM
SMILES: CC#CC(=O)N1CCc2c([nH]c3ccccc23)C1c1ccc(OC)c(C)c1 (stereo not drawn) [VTT-006, 2-(2-butynoyl)-1-(4-methoxy-3-methylphenyl)-2,3,4,9-tetrahydro-1H-beta-carboline]
- koff [2]: residence time of Ndc80-GFP on microtubules was significantly shorter in the presence of VTT-006
